Test results taken from US11510928B2, “Use of mirtazapine in the treatment of inflammatory disorders, autoimmune disease and PBC” (UTI Limited Partnership, priority 2017, dated 2022).
“And” between values parts separate entries of the source, which are not always exact repeats. Equal values may be shown once.

Columns and labels:
PBC patients [1] = assay: THIN database cohort study of PBC patients: decompensation, liver transplant and mortality free survival by drug usage; assay type: in vivo, human
Description: We conducted a cohort study using The Health Improvement Network (THIN). THIN is one of the largest medical databases in the UK^8, consisting of prospectively gathered electronic medical records from over 11.1 million patients^8. […] Data from participant general practitioners across the UK is exported to the THIN administrators and database, which is updated every 3 months^11. The THIN database records demographic data and clinical events using Read codes, prescription medications, and laboratory values^12.
We identified patients with PBC Read code “J6160” from April 1974 until May 2007. This cohort was followed until May 2012. We excluded patients having overlap syndrome with autoimmune hepatitis or primary sclerosing cholangitis. The first code of PBC identified in the THIN database was considered the index (ie. diagnosis) date. FIG. 10 provides a flow diagram illustrating the selection of the study population. The primary outcome was the first occurrence of one of the three events following the diagnosis of PBC: (1) decompensation of cirrhosis (ascites, spontaneous bacterial peritonitis, hepatic encephalopathy, hepatorenal syndrome, variceal bleeding, jaundice, or hepatocellular carcinoma); (2) liver transplantation; or (3) death.
Read codes were used to identify patients with chronic depression disorder. Chronic depression was defined as follows: (1) never diagnosed with chronic depression; (2) past depression diagnosis prior to 90 days from PBC diagnosis; and (3) current depression diagnosis if a diagnosis was made within 90 days before or after a PBC diagnosis. Using THIN database therapy files, we assessed the impact of anti-depressant medications on outcomes of PBC patients (mortality, decompensation, and liver transplant).
For each anti-depressant medication, use was defined as follows: (1) never used the medication; (2) past use as defined as a previous code for medication use prior to 90 days of PBC diagnosis; and (3) current medication user if the medication code was identified within 90 days before or after a PBC diagnosis. We assessed the effect of each anti-depressant medication on study outcomes separately. Antidepressants were classified as typical or atypical and stratified accordingly. Atypical antidepressants include: Agomelatine, Bupropion and Mirtazapine. While typical antidepressants include the following groups: (a) Selective Serotonin Reuptake Inhibitors (SSRI): Citalopram, Escitalopram, Fluoxetine, Fluvoxamine, Paroxetine and Sertraline; (b) […] (SNRI): Desvenlafaxine, Duloxetine, Minacipran and Venlafaxine; (c) Serotonin modulators: Nefazodone, Trazodone and Vilazodone; (d) Tricyclics and tetracyclics: Amitriptyline, Amoxapine, Clomipramine, Desipramine, Doxepin, Imipramine, Maprotiline, Nortriptyline and Protriptyline, Trimiprramine; (e) Monamine oxidase inhibitors: Isocarboxazid, Phenelzine, Selegiline and Tranylcypromine.
We assessed age at diagnosis of PBC, sex, and the presence of coexisting liver disease (ie. chronic hepatitis either viral, alcoholic, or fatty liver disease; yes/no). Smoking status was classified (current, former, never smoked, or unknown status) at the time of PBC diagnosis, alcohol consumption was classified (current, former, never consumed alcohol, or unknown status) at PBC diagnosis. Ursodeoxycholic acid (UDCA) usage (ever/never recorded) was also determined.
In our primary analysis, we assessed demographic, clinical, and medication variables in the PBC cohort according to depression status. Where appropriate, we used the Fisher Exact test or Chi-Square test for categorical data, and the Kruskal-Wallis or Student's t-test for continuous data. Univariate analysis using Log Rank test and multivariate Cox Proportional Regression models were used to assess the impact of depression or anti-depressant medications on PBC outcomes as defined by death, decompensated cirrhosis, or liver transplant. […]

PBC patients [2] = settings: human, in vivo; listed as UDCA; cited from earlier work
[3] = URSO usage (ever/never recorded)

| Compound | Univariate HR, 10-year decompensation, liver transplant and mortality free survival (PBC patients [1]; current usage vs none) | Univariate HR, 10-year decompensation, liver transplant and mortality free survival (PBC patients [1]; usage prior to PBC diagnosis vs none) | Multivariate model-1 HR (PBC patients [1]; [3]) | Multivariate model-2 HR (PBC patients [1]; [3]) | Univariate HR, 10-year decompensation, liver transplant and mortality free survival (PBC patients [1]; [3]) | Patients with PBC who do not fully respond to treatment (PBC patients [2]) |
| --- | --- | --- | --- | --- | --- | --- |
| CNCCC(Oc1ccc(C(F)(F)F)cc1)c1ccccc1 (stereo not drawn) [Fluoxetine] | 0.58 | 0.83 | – | – | – | – |
| C[C@H](CCC(=O)O)[C@H]1CC[C@H]2[C@@H]3[C@@H](O)C[C@@H]4C[C@H](O)CC[C@]4(C)[C@H]3CC[C@]12C [URSO, ursodeoxycholic acid] | – | – | 1.00 | 1.00 | 0.80 | 30% to 40% and 30-40% |
